# According to patent US20080191164A1, “Method For the Treatment of a Material Other Than the Human Body” (priority 2005, published 2008):
# Legend:
# [1] = Flammability / flashpoint of the compositions; type: physicochemical; design: key to FLA = flammability: − = no; +/° C. = yes/flashpoint
# [2] = compulsory labelings; cited from earlier work
# [3] = Biodegradability (general properties table)
# [4] = tested on: man; conditions: cited from earlier work; for toxicity for man: compulsory labelings T, Xn, R40, R45 and/or R65
# [5] = Volatility / aptitude for drying; type: physicochemical; design: key: 0 = low; + = moderate; ++ = high
# [6] = Rinsability with water; type: physicochemical; design: key: 0 = poor; + = good; ++ = excellent
# [7] = background statement; cited from earlier work
# [8] = Rate of evaporation with respect to n-butyl acetate; type: physicochemical; conditions: 20° C.
# [9] = advantages hitherto described; cited from earlier work
# [10] = tested on: aquatic organisms, such as bacteria, freshwater algae, daphnia and freshwater fish; experiment: Toxicity for aquatic organisms
# [11] = Ready biodegradability, OECD No. 301 A (DOC Die-away Test); conditions: at 28 days
# [12] = Risks of harmfulness, protection of the aquatic environment/bioaccumulation; design: key: − = harmfulness demonstrated; + = slight risk; ++ = very slight risks
# Excerpt: For each of Compositions A to E, the characteristics of odor (“ODOR”), of stability at alkaline pH, i.e. at a pH of 9 (“STAB.”) and of risks of harmfulness in terms of protection of the aquatic environment/bioaccumulation (“BIO.”) are taken up in the table below according to the following notation: […]
SMILES,FLA = flammability [1],toxicity for the environment [2],BIO = biodegradability [3],toxicity for man [4],VOL = volatility/aptitude for drying [5],RIN = rinsability with water [6],FLA: flashpoint [1] [°C],flashpoint [7] [°C],rate of evaporation with respect to n-butyl acetate [8],miscibility with water [9],toxicity for aquatic organisms [10],ready biodegradability (OECD No. 301 A) [11] [%],"BIO. (risks of harmfulness, aquatic environment/bioaccumulation) [12]",irritant nature and toxicity to man ([4]; advantages hitherto described)
"ClC=C(Cl)Cl [Composition 1, trichloroethylene]",−,compulsory labelings R51/R53,−,a certain toxicity for man,++,0,,,,,,,,
"ClCCl [Composition 2, dichloromethane]",−,compulsory labelings R51/R53,−,a certain toxicity for man,++,0,,,,,,,,
"C=C(C)[C@H]1CC=C(C)CC1 [Composition 3, dipentene]",+,,+,,++,0,48,,,,,,,
"CCOC(=O)C(C)O (stereo not shown) [Composition 4, ethyl lactate]",+,,,,+,+,46,46,,,,,,
"CO[C@H]1CO[C@H]2[C@@H]1OC[C@H]2OC [Composition 5, dimethyl isosorbide]",+,,+,,0,++,120,,less than 0.005,in all proportions,absence of toxicity,~25,++,absence of irritant nature and of toxicity to man
C=C(C)[C@H]1CC=C(C)CC1 [d-limonene],,,,,,,,48,,,,,,
